Here are results for 2 molecules from US4529589A, “Pharmaceutical composition for the treatment of diabetes mellitus” (priority 1981, dated 1985).

The test system of experiment [1] is volunteer suffering from diabetes. The experiment can be described thus: sugar curve after dietic breakfast in volunteer with diabetes in a light form. In kind it is in vivo, human. How it is done: Volunteer (body weight 89 kg) suffered from diabetes in a light form for 10 years. The blood sugar level in the morning on empty stomach was varied from 125 to 190 mg%. On recommendation of the endocrinologist, they were treated with maninyl in a dose of from 0.00125 to 0.0025 g (1/4-1/2 of a tablet) a day. 6 tests were performed including 1 control sugar curve at the background of administration of a dietic breakfast, the 2-nd test--the same curve but with administration, during breakfast, of 0.00125 g of maninyl and 4 tests with the preparation according to the present invention. The doses of insulin in the plates of the preparation of this invention were […]. The duration of resorption of the plates was 9 to 36 minutes. The breakfast was 9-37 minutes thereafter.
The sugar curve obtained after the control test against the background of having a dietic breakfast without hypoglycemic remedies had the following character: the starting blood sugar level was 125 mg%; after 30 minutes since the breakfast--153 mg%; 60 minutes thereafter--155 mg%, 2 hours thereafter--135 mg%, i.e., after 30 and 60 minutes, the blood sugar level was increased by 22 and 24% respectively relative to the initial value.
In a week, the test was repeated; however, during the dietic breakfast, the volunteer was administered 0.00125 g of maninyl (1/4 of a tablet). […] The absolute level of blood sugar was as high as 200 mg%. After 120 minutes, a high blood sugar level was retained--170 mg% which was by 10% higher than the initial value on the same day of investigation.
One week afterwards, the experiment was repeated. The initial level of blood sugar was equal to 190 mg%. The volunteer was administered a plate of the preparation of this invention containing 16 units of insulin (test dose) sublingually; 30 minutes thereafter, the volunteer had breakfast (dietic one). 30 minutes after the breakfast, the blood sugar level was increased up to 200 mg% (by 5% altogether) which was by 17% below the raise in the control test; after 60 minutes--by 26% (240 mg%) which substantially corresponded to the level raise in the control investigation (+2%) and after 120 minutes--reduced by 8% of the initial value (175 mg%) which was by 16% below the level in the control test.

Experiment [2] has as its system volunteer patients-physicians. The experiment in a line: sugar curve after glucose load per os (0.7 g/kg) in volunteers. The following applies: for decrease in the blood sugar level as compared to the control sugar curve: subcutaneous 16 units (after volunteer I.). The format is in vivo, human. How it is done: The pharmaceutical preparation for the treatment of diabetes mellitus has been studied on volunteer patients-physicians. The experiments have been performed on 8 volunteers. 58 tests were carried out including 9 control tests without administration of insulin, 6 control tests with subcutaneous administration of insulin and 43 experimental tests with the administration of plates of the preparation according to the present invention. The control investigation--a sugar curve--has been taken for every volunteer. This involved determination of the blood sugar level in an empty stomach, whereafter the patient was administered glucose per os at the rate of 0.7 g/kg of the body weight diluted with 200 ml of warm water and then the blood sugar level was determined after 30, 60 and 120 minutes. Therefore, in this manner, the blood sugar level variations were determined under the effect of administration of gluclose including the determination of the maximum increase as a percentage of the starting sugar level in blood in the empty-stomach state. After 1-2 weeks, the investigation with a similar sugar load was repeated simultaneously with subcutaneous administration of crystalline insulin at the rate of 0.1-0.2 unit/kg of the body weight right after the administration of the same dose of glucose. After an additional 1-2 weeks, the investigation with the preparation according to the present invention has been carried out. The preparation according to the present invention in the form of plates of a polymer was placed under the tongue by application of the plates to the lower lingual surface at its root or at any other suitable place of the mucous membrane of the mouth cavity. The content of insulin in the plates was varied from 8 to 150 units. After a complete resorption of the plate, maximum within 60 minutes, the volunteer was given a standard dose of glucose per os. The blood examination for sugar has been performed on an empty stomach after 30, 60 and 120 minutes since the glucose administration. The hypoglycemic effect of the test preparations was evaluated by the difference in sugar levels in blood (%) as compared to the control test (without insulin).

In the next experiment the test system is patients. The following applies: subcutaneous (sometimes intramuscular) injection, majority of patients; cited from earlier work.

For `COc1ccc(Cl)cc1C(=O)NCCc1ccc(S(=O)(=O)NC(=O)NC2CCCCC2)cc1` [maninyl], the “raise of the sugar curve, % of the initial value” in experiment [1] (0.00125 g during dietic breakfast, after 30 and 60 minutes, starting level 155 mg%) is listed as “+29%”. Further, the “blood sugar level higher than the initial value” in experiment [1] (0.00125 g during dietic breakfast, after 120 minutes) was determined as 10%. Also, the “absolute level of blood sugar (as high as)” value in experiment [1] (0.00125 g during dietic breakfast, starting level 155 mg%) came out at 200 mg%. In addition, the “hypoglycemic effect (in words)” value in experiment [1] (dose prescribed by the endocrinologist) is reported as “no hypoglycemic effect at all”.
Take “crystalline insulin: crystalline insulin administered subcutaneously as comparison”: the “sugar level higher than the control value” in experiment [2] (subcutaneous 8 units (volunteer D.), after 30 minutes) worked out at 6%. Also, in experiment [2] (subcutaneous 8 units (volunteer D.), after 60 minutes), the “sugar level below the control level” value stood at 60%. For the same molecule, the “sugar level above the control level” value in experiment [2] (subcutaneous 8 units (volunteer D.), after 120 minutes) is 20%. Moreover, the “blood sugar level exceeded the control value” in experiment [2] (subcutaneous 8 units (volunteer P.), after 30 minutes) is listed as 16%. The “blood sugar level below the control value” in experiment [2] (subcutaneous 8 units (volunteer P.), after 60 minutes) stood at 43%. Further, in experiment [2] (subcutaneous 8 units (volunteer P.), after 120 minutes), the “blood sugar level below the control” value was found to be 12%. In addition, the “blood sugar level increased as compared to the initial value” in experiment [2] (subcutaneous 8 units with 56 g glucose (volunteer D.), after 30 minutes) stood at 86%; in experiment [2] (subcutaneous 8 units with 56 g glucose (volunteer D.), after 60 minutes), 40%; in experiment [2] (subcutaneous 8 units with 56 g glucose (volunteer D.), after 120 minutes) it was 33%; in experiment [2] (subcutaneous 8 units with 56 g glucose (volunteer P.), after 30 minutes), 87%. Besides, in experiment [2] (subcutaneous 8 units with 56 g glucose (volunteer P.), after 60 minutes), the “blood sugar level lowered” value was 53%. Moreover, in experiment [2] (subcutaneous 8 units with 56 g glucose (volunteer P.), after 120 minutes), the “blood sugar level relative to the initial level (in words)” value is listed as “returned to the initial level”. For the same molecule, the figures for the “decrease in the blood sugar level as compared to the control sugar curve” value in experiment [2] (after 30 minutes), in experiment [2] (after 60 minutes) and in experiment [2] (after 120 minutes) were 55%, 18% and 34%, respectively. For the same molecule, the “sugar level in blood increased relative to the initial value” in experiment [2] (subcutaneous 16 units with 56 g glucose (after volunteer I.), after 30 minutes) is 31%; in experiment [2] (subcutaneous 16 units with 56 g glucose (after volunteer I.), after 60 minutes) it was 13%. Also, the “sugar level in blood reduced relative to the initial value” in experiment [2] (subcutaneous 16 units with 56 g glucose (after volunteer I.), after 120 minutes) is 7%. Moreover, the “time to maximum effect” value in the experiment on patients was 2 to 5 h.
